Experimental data: patent publication EP1759703A1, “IMMUNISTIMULATIVE AND INTERFERONOGENOUS AGENT” (Akciju Sabiedriba "Olainfarm", priority 2004, dated 2006)
Counter-ions that a name gives are not always drawn. Like-named read-outs stand apart in the source and are kept apart here.

How the values were obtained:
Solubility (qualitative) = format: physicochemical
[1] = system: natural killers (NK-cells); assay: NK-cell functional activity test (lysis of K-562 target cells, fluorescent tag); format: cell-based; conditions: Homo sapiens, ratio of treated to untreated NK-cells activity, read-out: Relative value of change of NK-activity over DMAAM compounds
Text: Immunostimulating activity. Determination of the effect of claimed compounds on functional activity of immunocomptent human cells.
Immunocompetent cells - natural killers (NK-cells) - relate to the system of natural human body resistance. Identification of the status of this immune system link gives important information about the state of the body immune status. To assess the state of this immune system link depending on the presence of studied compounds a functional test was used to determine the NK-cells capacity to expose to lysis the target cells of tumor myeloblast culture K-562, the identification of which was implemented using a fluorescent tag. NK-cells activity was identified in accordance with the number of the target cells K-562 "killed" by them which were evaluated based on the intensity of fluorescent glowing in the area characteristic for killed cells and against control results (i.e. when NK-cells are absent).
The influence level of the studied drugs on NK-cells activity was assessed based on the value of the NK-cells activity ratio when treated with these medications to the activity of untreated NK-cells in the lysis process of target cells of the test culture, line K-562.
To select medication doses and concentrations while studying their activity, their minimal toxic dose against target cells and mononuclear cells of peripheral blood was preliminarily measured.
This defines a considerable immunostimulating effect of offered substances.
In addition immunostimulating effect mainly occurs in polymeric compounds (PVASA - DMAAM, VA - VASA - DMAAM, VP - VASA - DMAAM), and with an increase of drug concentration their stimulating impact on NK-cells activity enhances. Table 1. Change of NK-cells activity over 3.5-dimethyl-1-adamantylamine.

[2] = system: mononuclear cells of peripheral blood (NK-cells); format: cell-based, human; conditions: IU of interferon antiviral activity as regards the virus of vesicular stomatitis
[3] = system: white mice of both sexes, line "Balb"; assay: Acute toxicity, single oral administration, mice; format: in vivo
Method: The toxicity level of claimed compounds was assessed according to a general index of acute toxicity - average fatal dose of LD50. The study was held with a single oral administration of the medication to white mice of both sexes, line "Balb", weight 18 - 20 g, and to white rats, line "Vistar", weight 130 - 250 g (female) and 225 - 370 g (male). The medications were administered to mice in the dose ranging from 25 to 1100 mg/kg, and to rats in the range of 480 - 2315 mg/kg.

Row | SMILES | solubility in water (Solubility (qualitative)) | fold induction at 2 µg/mL ([1]; K562, concentration 2 mcg/ml (as calculated per DMAAM)) | fold induction at 10 µg/mL ([1]; K562, concentration 10 mcg/ml (as calculated per DMAAM)) | fold induction at 50 µg/mL ([1]; K562, concentration 50 mcg/ml (as calculated per DMAAM)) | Interferon induction activity of NK-cells ([2]; concentration 2 mcg/ml (as calculated per DMAAM)) | Interferon induction activity of NK-cells ([2]; concentration 10 mcg/ml (as calculated per DMAAM)) | Interferon induction activity of NK-cells ([2]; concentration 50 mcg/ml (as calculated per DMAAM)) | LD50 [3]
1 | CC12CC3CC(C)(C1)CC(N)(C3)C2 [3.5-dimethyl-1-adamantylamine] | insoluble in water |  |  |  |  |  |  | 
2 | CC12CC3CC(C)(C1)CC(N)(C3)C2 [HC - DMAAM, hydrochloride 3.5-dimethyl-1-adamantylamine] |  | 1 | 1.2 | 1.6 | 5.77 IU/ml | 13.00 IU/ml | 14.46 IU/ml | 363 mg/kg
